Where two headings read alike, the source gives them in different places.
Legend:
[1] = test system: Puccinia recondita (wheat); experiment: Fungicidal test against foliar disease A (foliage spray plus soil drench); assay type: in vivo; details: 10 days
[2] = test system: Pieris brassicae (cabbage white caterpillars); experiment: Pest toxicity test; assay type: in vivo; details: 0.1% by weight, 2 days
Pseudomonas syringae = experiment: Antibacterial agar test (B6); assay type: cell-based; details: 50 ppm; 5 days
Streptomyces scabies = experiment: Antibacterial agar test (B7); assay type: cell-based; details: 50 ppm; 5 days
Xanthomonas malvacearum = experiment: Antibacterial agar test (B3); assay type: cell-based; details: 50 ppm; 5 days
Protocol: (§1) This Example illustrates the activity of compounds used as the active ingredients of compositions according to the invention against a variety of plant bacterial diseases and fungal post-harvest saprophytic diseases. In a test for such activity, 5 milligrams of the compound to be tested was dissolved or suspended in 10 ml. of acetone and enough of this solution or suspension was added to 18 ml. of nutrient agar (for the bacterial diseases) or 16 ml. of 2% malt agar (for the fungal diseases) to give a final concentration of 50 parts per million of the compound under test. A streptomycin preparation (2 ml. containing 100 units per ml.) was added to the malt agar to prevent bacterial contamination of the fungal tests.
(§2) The agar preparations were dried overnight in Petri dishes and inoculated the following morning with the bacterial or fungal diseases using a multipoint inoculator. The antibacterial activity was assessed after 5 days and the antifungal activity after 6 days. The results of the tests are set out in Table 16 (anti bacterial activity) and Table 17 (antifungal activity). The results are graded as in Example 1 above.

[3] = test system: Musca domestica (houseflies); experiment: Pest toxicity test, contact test; assay type: in vivo; details: 0.1% by weight; milk/sugar; 2 days; flies sprayed directly
[4] = test system: Corynebacterium michiganense; experiment: Antibacterial agar test (B2); assay type: cell-based; details: 50 ppm; 5 days
Protocol: as §1, §2

Uncinula necator (vine) = experiment: Fungicidal test against foliar disease D (foliage spray plus soil drench); assay type: in vivo; details: 10 days; for Amount of disease grading, disease D (Table 4): 100 ppm spray and drench
Erwinia carotovora = experiment: Antibacterial agar test (B4); assay type: cell-based; details: 50 ppm; 5 days
Tomato = experiment: Herbicidal test, pre- and post-emergence; assay type: in vivo; details: 10 kg/ha; scale 0 to 3 (complete kill)
Maize = experiment: Herbicidal test, pre- and post-emergence; assay type: in vivo; details: 10 kg/ha; scale 0 to 3 (complete kill)
[5] = test system: Aedes aegypti (mosquito adults); experiment: Pest toxicity test; assay type: in vivo; details: 0.01% by weight; plywood; 1 day
[6] = test system: Piricularia oryzae (rice); assay type: in vivo; details: 7 days
[7] = test system: Plasmopara viticola (vine); experiment: Fungicidal test against foliar disease C (foliage spray plus soil drench); assay type: in vivo; details: 10 days
Wheat = experiment: Herbicidal test, pre- and post-emergence; assay type: in vivo; details: 10 kg/ha; scale 0 to 3 (complete kill)
[8] = test system: Phaedon cochleariae (mustard beetles); experiment: Pest toxicity test; assay type: in vivo; details: in vivo
[9] = test system: Tetranychus telarius (red spider mites, eggs); experiment: Pest toxicity test; assay type: in vivo; details: 0.1% by weight; French bean; 3 days
Megoura viceae = experiment: Pest toxicity test; assay type: in vivo; details: 0.1% by weight; broad bean; 2 days
Aphis fabae = experiment: Pest toxicity test; assay type: in vivo; details: 0.1% by weight; broad bean; 2 days
Xanthomonas oryzae = assay type: cell-based; details: 50 ppm; 5 days
[10] = test system: Agrobacterium tumifaciens; experiment: Antibacterial agar test (B1); assay type: cell-based; details: 50 ppm; 5 days
Lettuce = experiment: Herbicidal test, pre- and post-emergence; assay type: in vivo; details: 10 kg/ha; scale 0 to 3 (complete kill)
[11] = test system: Tetranychus telarius (red spider mites, adults); experiment: Pest toxicity test; assay type: in vivo; details: 0.1% by weight; French bean; 3 days
[12] = test system: Plutella maculipennis (diamond back moth larvae); experiment: Pest toxicity test; assay type: in vivo; details: in vivo
[13] = test system: Aedes aegypti (mosquito larvae); experiment: Pest toxicity test; assay type: in vivo; details: 0.01% by weight; water; 1 day
[14] = test system: Phytophthora infestans (tomato); assay type: in vivo; details: 3 days
[15] = 50 ppm spray + 200 ppm soil drench

`O=[N+]([O-])c1cc(Br)c(Nc2c(Cl)c(F)nc(F)c2Cl)c([N+](=O)[O-])c1` [Compound 40, 4(2-Bromo-4,6-dinitroanilino)-3,5-dichloro-2,6-difluoropyridine] was tested, and the “Amount of disease grading, disease A (Table 4)” value (shortened to “Amount … disease A (Table 4)”) ([1]; 100 ppm spray and drench) was 0 (61 to 100), the “Mortality grading (kill)” value [2] was 0 (O represents less than 30% kill) and the “Antibacterial activity grading B6” value (Pseudomonas syringae) was 1 (26 to 60). The “Antibacterial activity grading B7” value (Streptomyces scabies) was 2 (6 to 25), the “Antibacterial activity grading B3” value (Xanthomonas malvacearum) was 3 (0 to 5) and the “Mortality grading (kill), contact test” value [3] was 3 (3 represents over 90% kill). For the same molecule, the “Antibacterial activity grading B2” value [4] was 2 (6 to 25), the “Amount of disease grading, disease D (Table 4)” value (from here on “Amount … disease D (Table 4)”) (Uncinula necator (vine)) was 3 (0 to 5) and the “Antibacterial activity grading B4” value (Erwinia carotovora) was 1 (26 to 60). For the same molecule, the “Damage to plants, post-emergence” value (Tomato) was 1, the “Damage to plants, pre-emergence” value (Tomato) was 3 and the “Damage to plants, post-emergence” value (Maize) was 0. For the same molecule, the “Damage to plants, pre-emergence” value (Maize) was 1, the “Mortality grading (kill)” value [5] was 0 (O represents less than 30% kill) and the “Amount of disease grading, disease E (Table 4)” value (“Amount … disease E (Table 4)” for short) ([6]; 100 ppm spray and drench) was 1 (26 to 60). The “Amount of disease grading, disease C (Table 4)” value (“Amount … disease C (Table 4)” for short) ([7]; 100 ppm spray and drench) was 3 (0 to 5), the “Damage to plants, post-emergence” value (Wheat) was 0 and the “Damage to plants, pre-emergence” value (Wheat) was 1. The “Mortality grading (kill)” value [8] was 2 (key: O represents less than 30% kill; 1 represents 30 - 49% kill; 2 represents 60 - 90% kill; 3 represents over 90% kill; C indicates a chemosterilant effect.; A indicates an antifeeding effect.), the “Mortality grading (kill)” value [9] was 3 (3 represents over 90% kill) and the “Mortality grading (kill)” value (Megoura viceae) was 3 (3 represents over 90% kill). For the same molecule, the “Mortality grading (kill)” value (Aphis fabae) was 3 (3 represents over 90% kill), the “Antibacterial activity grading B5” value (Xanthomonas oryzae) was 2 (6 to 25) and the “Antibacterial activity grading B1” value [10] was 2 (6 to 25). For the same molecule, the “Damage to plants, post-emergence” value (Lettuce) was 3, the “Damage to plants, pre-emergence” value (Lettuce) was 3 and the “Mortality grading (kill)” value [11] was 3 (3 represents over 90% kill). For the same molecule, the “Mortality grading (kill)” value [12] was 0 (key: O represents less than 30% kill; 1 represents 30 - 49% kill; 2 represents 60 - 90% kill; 3 represents over 90% kill; C indicates a chemosterilant effect.; A indicates an antifeeding effect.) and the “Mortality grading (kill)” value [13] was 3 (3 represents over 90% kill).
In the case of `Fc1nc(F)c(Cl)c(Nc2c(F)c(F)c(F)c3c(F)c(F)c(F)c(F)c23)c1Cl` [Compound 20, 3,5-Dichloro-2,6-difluoro-4(1-heptafluoronaphthylamino)pyridine], the “Amount of disease grading, disease A” value ([1]; 100 ppm spray and drench) is reported as 3 (0 to 5), the “Mortality grading (kill)” value [2] is reported as 0 (O represents less than 30% kill) and the “Antibacterial activity grading B6” value (Pseudomonas syringae) is reported as 2 (6 to 25). The “Antibacterial activity grading B7” value (Streptomyces scabies) was 2 (6 to 25), the “Antibacterial activity grading B3” value (Xanthomonas malvacearum) was 3 (0 to 5) and the “Mortality grading (kill), contact test” value [3] was 0 (O represents less than 30% kill). The “Antibacterial activity grading B2” value [4] was 3 (0 to 5), the “Antibacterial activity grading B4” value (Erwinia carotovora) was 2 (6 to 25) and the “Mortality grading (kill)” value [5] was 0 (O represents less than 30% kill). The “Amount of disease grading, disease E” value ([6]; 100 ppm spray and drench) was 2 (6 to 25), the “Amount of disease grading, disease C” value ([7]; 100 ppm spray and drench) was 3 (0 to 5) and the “Mortality grading (kill)” value [8] was 0 (key: O represents less than 30% kill; 1 represents 30 - 49% kill; 2 represents 60 - 90% kill; 3 represents over 90% kill; C indicates a chemosterilant effect.; A indicates an antifeeding effect.). The “Mortality grading (kill)” value [9] was 3 (3 represents over 90% kill), the “Mortality grading (kill)” value (Megoura viceae) was 2 (2 represents 60 - 90% kill) and the “Mortality grading (kill)” value (Aphis fabae) was 2 (2 represents 60 - 90% kill). The “Antibacterial activity grading B5” value (Xanthomonas oryzae) was 1 (26 to 60), the “Antibacterial activity grading B1” value [10] was 0 (61 to 100) and the “Mortality grading (kill)” value [11] was 3 (3 represents over 90% kill). For the same molecule, the “Mortality grading (kill)” value [12] was 3 (key: O represents less than 30% kill; 1 represents 30 - 49% kill; 2 represents 60 - 90% kill; 3 represents over 90% kill; C indicates a chemosterilant effect.; A indicates an antifeeding effect.) and the “Mortality grading (kill)” value [13] was 1 (1 represents 30 - 49% kill).
In the case of `O=[N+]([O-])c1ccc(Nc2c(Cl)c(F)nc(Cl)c2Cl)c(C(F)(F)F)c1` [Compound 44, 2-Fluoro-(4-nitro-2-trifluoromethylanilino)3,5,6-trichlorpyridine], the “Amount … disease A (Table 4)” value ([1]; 100 ppm spray and drench) is reported as 2 (6 to 25), the “Mortality grading (kill)” value [2] is reported as 3 (3 represents over 90% kill) and the “Antibacterial activity grading B6” value (Pseudomonas syringae) is reported as 3 (0 to 5). The “Antibacterial activity grading B7” value (Streptomyces scabies) was 3 (0 to 5), the “Antibacterial activity grading B3” value (Xanthomonas malvacearum) was 3 (0 to 5) and the “Mortality grading (kill), contact test” value [3] was 3 (3 represents over 90% kill). For the same molecule, the “Antibacterial activity grading B2” value [4] was 3 (0 to 5), the “Amount … disease D (Table 4)” value (Uncinula necator (vine)) was 3 (0 to 5) and the “Antibacterial activity grading B4” value (Erwinia carotovora) was 3 (0 to 5). The “Damage to plants, post-emergence” value (Tomato) was 3, the “Damage to plants, pre-emergence” value (Tomato) was 3 and the “Damage to plants, post-emergence” value (Maize) was 1. The “Damage to plants, pre-emergence” value (Maize) was 0, the “Mortality grading (kill)” value [5] was 0 (O represents less than 30% kill) and the “Amount … disease E (Table 4)” value ([6]; 100 ppm spray and drench) was 0 (61 to 100). The “Amount … disease C (Table 4)” value ([7]; 100 ppm spray and drench) was 3 (0 to 5), the “Damage to plants, post-emergence” value (Wheat) was 0 and the “Damage to plants, pre-emergence” value (Wheat) was 3. For the same molecule, the “Mortality grading (kill)” value [8] was 0 (key: O represents less than 30% kill; 1 represents 30 - 49% kill; 2 represents 60 - 90% kill; 3 represents over 90% kill; C indicates a chemosterilant effect.; A indicates an antifeeding effect.), the “Mortality grading (kill)” value [9] was 3 (3 represents over 90% kill) and the “Mortality grading (kill)” value (Megoura viceae) was 0 (O represents less than 30% kill). The “Mortality grading (kill)” value (Aphis fabae) was 0 (O represents less than 30% kill), the “Antibacterial activity grading B5” value (Xanthomonas oryzae) was 3 (0 to 5) and the “Antibacterial activity grading B1” value [10] was 3 (0 to 5). For the same molecule, the “Damage to plants, post-emergence” value (Lettuce) was 3, the “Damage to plants, pre-emergence” value (Lettuce) was 2 and the “Mortality grading (kill)” value [11] was 3 (3 represents over 90% kill). The “Mortality grading (kill)” value [12] was 0 (key: O represents less than 30% kill; 1 represents 30 - 49% kill; 2 represents 60 - 90% kill; 3 represents over 90% kill; C indicates a chemosterilant effect.; A indicates an antifeeding effect.) and the “Mortality grading (kill)” value [13] was 3 (3 represents over 90% kill).
With `O=[N+]([O-])c1cc([N+](=O)[O-])c(Nc2c(Cl)c(Cl)nc(Cl)c2Cl)cc1F` [Compound 35, 4(5-Fluoro-2,4-dinitroanilino)tetrachloropyridine] the “Amount … disease A (Table 4)” value ([1]; 100 ppm spray and drench) was 2 (6 to 25), the “Amount of disease grading, disease B (Table 4)” value ([14]; 100 ppm spray and drench) was 3 (0 to 5) and the “Antibacterial activity grading B6” value (Pseudomonas syringae) was 2 (6 to 25). The “Antibacterial activity grading B7” value (Streptomyces scabies) was 2 (6 to 25), the “Antibacterial activity grading B3” value (Xanthomonas malvacearum) was 0 (61 to 100) and the “Antibacterial activity grading B2” value [4] was 0 (61 to 100). For the same molecule, the “Amount … disease D (Table 4)” value (Uncinula necator (vine)) was 0 (61 to 100), the “Antibacterial activity grading B4” value (Erwinia carotovora) was 0 (61 to 100) and the “Amount … disease E (Table 4)” value ([6]; 100 ppm spray and drench) was 2 (6 to 25). The “Amount … disease C (Table 4)” value ([7]; 100 ppm spray and drench) was 3 (0 to 5), the “Antibacterial activity grading B5” value (Xanthomonas oryzae) was 1 (26 to 60) and the “Antibacterial activity grading B1” value [10] was 0 (61 to 100).
With `O=[N+]([O-])c1cc([N+](=O)[O-])c(Nc2c(Cl)c(F)nc(F)c2Cl)cc1F` [Compound 6, 3,5-Dichloro-2,6-difluoro-4(2,4-dinitro-5-fluoroanilino)pyridine] the “Amount of disease grading, disease A” value [1, 15] was 0 (61 to 100), the “Amount of disease grading, disease B” value [14, 15] was 3 (0 to 5) and the “Antibacterial activity grading B6” value (Pseudomonas syringae) was 2 (6 to 25). For the same molecule, the “Antibacterial activity grading B7” value (Streptomyces scabies) was 1 (26 to 60), the “Antibacterial activity grading B3” value (Xanthomonas malvacearum) was 3 (0 to 5) and the “Antibacterial activity grading B2” value [4] was 3 (0 to 5). For the same molecule, the “Amount of disease grading, disease D” value (Uncinula necator (vine); [15]) was 2 (6 to 25), the “Antibacterial activity grading B4” value (Erwinia carotovora) was 1 (26 to 60) and the “Amount of disease grading, disease E” value [6, 15] was 3 (0 to 5). The “Amount of disease grading, disease C” value [7, 15] was 3 (0 to 5), the “Antibacterial activity grading B5” value (Xanthomonas oryzae) was 2 (6 to 25) and the “Antibacterial activity grading B1” value [10] was 3 (0 to 5).
